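Tested at 5 concentrations; 48 h exposure; 96-well plates; endpoints linearly interpolated, else capped at highest concentration. GI50 marks 50% less growth. TGI denotes the concentration required for complete inhibition of growth.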 Bounds are passed on as bounds.

Test systems include HOP-62 NSCLC; HT29 colon; MDA-MB-231 breast; NCI-H23 lung; NCI-H522 lung; SK-MEL-28 melanoma; SNB-75 CNS; CCRF-CEM leukemia; HL-60(TB) leukemia.
What all share (test): inhibition of tumour cell growth, NCI panel, 48 h

For the molecule `NCCCCC1NC(=O)C(CC(=O)O)NC(=O)CNC(=O)C(CCCN=C(N)N)NC(=O)C(N)CSSCC(C(=O)O)NC(=O)C(CC(=O)O)NC(=O)C2CCCN2C(=O)CNC1=O` (centres undefined), the GI50 in the experiment with HOP-62 NSCLC, in the experiment with HT29 colon, in the experiment on MDA-MB-231 breast, in the experiment on NCI-H23 lung, with NCI-H522 lung and in the experiment with SK-MEL-28 melanoma was more than 100 µM throughout. Moreover, the GI50 in the experiment on SNB-75 CNS is more than 100 µM. For the same molecule, the TGI in the experiment with HOP-62 NSCLC, in the experiment on HT29 colon, in the experiment with MDA-MB-231 breast, in the experiment on NCI-H23 lung, in the experiment on NCI-H522 lung and in the experiment on SK-MEL-28 melanoma was more than 100 µM throughout. Moreover, in the experiment on SNB-75 CNS, the TGI is more than 100 µM.
On to `O=C(O)c1cc(=O)c2c([nH]c3ccccc32)s1`, for which the TGI with CCRF-CEM leukemia, in the experiment with HL-60(TB) leukemia, in the experiment on HOP-62 NSCLC, with NCI-H23 lung, with NCI-H522 lung and in the experiment with SK-MEL-28 melanoma was more than 100 µM in each case. The molecule further gave a TGI in the experiment with SNB-75 CNS of more than 100 µM.
Consider `C#CCNC(=O)NCCCCC(NC(=O)OCc1ccccc1)C(=O)OCc1ccccc1` (centres undefined), for which the TGI is 41.3 µM with CCRF-CEM leukemia; 35.4 µM with HL-60(TB) leukemia; more than 43 µM with HOP-62 NSCLC; more than 100 µM in the experiment with HT29 colon; more than 100 µM in the experiment with NCI-H23 lung; 54 µM in the experiment on NCI-H522 lung. Further, the TGI with SK-MEL-28 melanoma and in the experiment with SNB-75 CNS was more than 100 µM throughout.
Take `O=c1cccccc1NCCCCCCCNc1cccccc1=O`: the TGI in the experiment on CCRF-CEM leukemia is 67.2 µM; with HL-60(TB) leukemia, 30 µM; in the experiment with HOP-62 NSCLC it was more than 100 µM; in the experiment with HT29 colon, more than 100 µM; in the experiment on NCI-H23 lung, more than 100 µM; in the experiment with NCI-H522 lung, 55.2 µM. This molecule also returned a TGI in the experiment on SNB-75 CNS of more than 100 µM.
For `COC(=O)C1C(=O)CC2CCCCC21` (centres undefined), the TGI in the experiment on CCRF-CEM leukemia, in the experiment on HL-60(TB) leukemia, with HOP-62 NSCLC, with NCI-H522 lung, with SK-MEL-28 melanoma and in the experiment on SNB-75 CNS was more than 100 µM each time.
Regarding `Cl/C(N=Nc1ccccc1)=N/Nc1ccccc1`, the TGI in the experiment with CCRF-CEM leukemia, with HL-60(TB) leukemia, with HOP-62 NSCLC, in the experiment with HT29 colon, with NCI-H23 lung and in the experiment on NCI-H522 lung was more than 100 µM throughout. Moreover, the TGI in the experiment with SK-MEL-28 melanoma is more than 100 µM.
Turning to `CCc1cccc(C)c1N1C(=O)C(=O)C(c2nc3ccccc3o2)C(=O)C1=O`, the TGI in the experiment on CCRF-CEM leukemia, in the experiment with HL-60(TB) leukemia, in the experiment on HOP-62 NSCLC, in the experiment with HT29 colon, in the experiment on NCI-H23 lung and in the experiment with NCI-H522 lung was more than 100 µM each time. The TGI in the experiment with SK-MEL-28 melanoma and with SNB-75 CNS was more than 100 µM each time.
As for `O=c1nc(-c2ccccc2)cc(CC(O)c2ccc(Cl)c(Cl)c2)[nH]1` (centres undefined), the TGI with CCRF-CEM leukemia is more than 100 µM; in the experiment on HL-60(TB) leukemia, 76 µM; with HOP-62 NSCLC, more than 100 µM; in the experiment with HT29 colon it was more than 100 µM; in the experiment on NCI-H23 lung it was more than 100 µM; with NCI-H522 lung, 90.8 µM. Further, the TGI with SK-MEL-28 melanoma and in the experiment with SNB-75 CNS was more than 100 µM in each case.
Regarding `COc1ccc(OC(C(=O)O)C(C)C)c2c1CCCC2=O` (centres undefined), the TGI in the experiment with CCRF-CEM leukemia, in the experiment with HL-60(TB) leukemia, in the experiment with HOP-62 NSCLC, in the experiment on HT29 colon, with NCI-H23 lung and in the experiment with NCI-H522 lung was more than 100 µM each time. Also, the TGI with SK-MEL-28 melanoma is more than 100 µM.
Turning to `C#CCNC(=O)ON1C(=O)CCC1=O`, the TGI in the experiment on CCRF-CEM leukemia, in the experiment on HL-60(TB) leukemia, in the experiment with HOP-62 NSCLC, in the experiment on HT29 colon, in the experiment on NCI-H23 lung and in the experiment on NCI-H522 lung was more than 100 µM each time. The TGI with SK-MEL-28 melanoma and in the experiment with SNB-75 CNS was more than 100 µM each time.
As for `C[Si](C)(C)C(CCCCSc1ccccc1)(Sc1ccccc1)Sc1ccccc1`, the TGI in the experiment on CCRF-CEM leukemia, with HL-60(TB) leukemia, with NCI-H23 lung, with SK-MEL-28 melanoma and in the experiment with SNB-75 CNS was more than 100 µM each time.
For the molecule `CCOC(=O)c1c(C)n(Cc2ccc(Cl)cc2Cl)c2c1cc1oc(=O)c(=O)n3cnc2c13`, the GI50 was 6.31 µM in the experiment on CCRF-CEM leukemia; 5.43 µM in the experiment on HL-60(TB) leukemia; 15.5 µM in the experiment with HOP-62 NSCLC; 11 µM in the experiment with HT29 colon; 15.7 µM in the experiment with MDA-MB-231 breast; 16.4 µM in the experiment with NCI-H522 lung. In addition, the GI50 was 14.2 µM with SK-MEL-28 melanoma and 3.39 µM in the experiment with SNB-75 CNS. The TGI was determined as 20.4 µM in the experiment on CCRF-CEM leukemia; 28.2 µM with HL-60(TB) leukemia; 33.1 µM in the experiment with HOP-62 NSCLC; 37.8 µM in the experiment with HT29 colon; 31.4 µM in the experiment with MDA-MB-231 breast; 32.9 µM with NCI-H522 lung. Moreover, the TGI in the experiment with SK-MEL-28 melanoma is 31.7 µM; in the experiment on SNB-75 CNS, 15.3 µM.
In the case of `Cc1ccc(S(=O)(=O)N=NC=C2c3ccccc3N(O)c3ccccc32)cc1`, the TGI with CCRF-CEM leukemia was 2.93 µM; in the experiment with HL-60(TB) leukemia, 4.62 µM; in the experiment with HOP-62 NSCLC it was 18.8 µM; in the experiment on HT29 colon, 13.2 µM; in the experiment with NCI-H23 lung, 19.3 µM; in the experiment on NCI-H522 lung it was 3.86 µM. Also, the results for the TGI in the experiment with SK-MEL-28 melanoma and in the experiment with SNB-75 CNS were 14.5 µM and 10.4 µM, respectively.
On to `CCOC(=O)CN(Cn1cncn1)Cn1cncn1`, for which the TGI with CCRF-CEM leukemia is more than 100 µM; with HL-60(TB) leukemia, more than 100 µM; in the experiment on HOP-62 NSCLC, more than 100 µM; in the experiment on HT29 colon it was more than 100 µM; with SK-MEL-28 melanoma, 37.1 µM; with SNB-75 CNS, 91 µM.
Regarding `O=C(C#Cc1ccccc1)N1c2ccccc2CC1c1c[nH]c2ccccc12` (centres undefined), the TGI came to 32 µM in the experiment on CCRF-CEM leukemia; 36.2 µM in the experiment with HL-60(TB) leukemia; 26.9 µM in the experiment with HOP-62 NSCLC; 40.6 µM in the experiment with HT29 colon; 32.4 µM in the experiment with NCI-H23 lung; 24.1 µM in the experiment with NCI-H522 lung. In addition, the TGI in the experiment on SK-MEL-28 melanoma is 30.5 µM; in the experiment with SNB-75 CNS, 37.6 µM.
Regarding `N/C(=N\NS(=O)(=O)c1ccccc1)Oc1ccc(Br)cc1Br`, the TGI in the experiment on CCRF-CEM leukemia, with HL-60(TB) leukemia, in the experiment with HOP-62 NSCLC, in the experiment on HT29 colon, in the experiment on NCI-H23 lung and in the experiment with NCI-H522 lung was more than 100 µM each time. Besides, the TGI in the experiment on SK-MEL-28 melanoma and with SNB-75 CNS was more than 100 µM each time.
As for `CC1(c2cc3c(cc2Br)OCO3)SCCCS1`, the TGI in the experiment on CCRF-CEM leukemia is more than 100 µM; in the experiment with HL-60(TB) leukemia it was 65.9 µM; with HOP-62 NSCLC it was more than 100 µM; in the experiment on HT29 colon it was more than 100 µM; in the experiment with NCI-H23 lung, 45.5 µM; with NCI-H522 lung, 7.36 µM. Further, the TGI in the experiment on SK-MEL-28 melanoma and in the experiment with SNB-75 CNS was more than 100 µM in each case.

The values above are taken from PubChem BioAssay (NCI).
